Here are results for 15 molecules from paper PMC6792352, “Limited Chemical Structural Diversity Found to Modulate Thyroid Hormone Receptor in the Tox21 Chemical Library” (Environmental Health Perspectives, 2019).

Data set [1] addresses T1, human TRβ ligand-binding domain (Homo sapiens, UniProt P10828).
T1 sequence (P10828 217-461 limits assumed): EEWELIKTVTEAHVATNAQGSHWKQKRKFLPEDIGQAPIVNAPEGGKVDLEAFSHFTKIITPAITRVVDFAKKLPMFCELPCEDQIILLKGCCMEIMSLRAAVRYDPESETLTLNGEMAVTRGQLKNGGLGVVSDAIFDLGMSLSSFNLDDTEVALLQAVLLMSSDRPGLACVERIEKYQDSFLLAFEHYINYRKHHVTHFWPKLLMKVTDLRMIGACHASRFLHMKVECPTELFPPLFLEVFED
Briefly: TRb-bla agonist mammalian one-hybrid beta-lactamase assay (TOX21_TRB_BLA_Agonist_Followup_ratio, aeid 2236). Set-up: host or cells: GeneBLAzer UAS-bla HEK 293T. The data set is classed as cell-based.

Data set [2] has as its system thyroid hormone receptor (endogenous TRα and TRβ). Briefly: GH3-TRE-Ag-Followup confirmation (TOX21_TR_LUC_GH3_Agonist_Followup, aeid 2226). The settings on record: for AC50: read-out: GH3-TRE-Ag-Followup AC50. The data set is classed as cell-based, rat.
The subject of data set [3] is Tox21 cell viability assays (different cell types). Put plainly: Global cytotoxicity: eighteen Tox21 cell viability assays. The data set is classed as cell-based.
For data set [4], the system named is GH3-TRE-Luc cell line. The settings on record: rat, 24 h.
For data set [5], the system named is thyroid hormone receptor (endogenous TRα and TRβ). Put plainly: cells. The settings on record: 24 h, read-out: TR_LUC_GH3_Agonist_AC50 (uM). Also on record: species or system GH3-TRE-Luc (rat pituitary); GH3-TRE-Luc luciferase reporter transactivation, agonist mode, qHTS; RXR ligands can also activate indirectly.
For data set [6], the target named is T1, human TRβ ligand-binding domain. Briefly: TRb-coa LanthaScreen TR-FRET coactivator (SRC-2 peptide) recruitment, agonist (TOX21_TRB_COA_Agonist_Followup_ratio, aeid 2244). In kind it is biochemical. Also on record: host or cells: GeneBLAzer UAS-bla HEK 293T.
Data set [7] has as its target T2, TRα ligand-binding domain (Homo sapiens, UniProt P10827).
T2 construct: the receptor LBDs expressed as glutathione S-transferase (GST) fusion proteins; purchased
Briefly: TRa-coa LanthaScreen TR-FRET coactivator (SRC-2 peptide) recruitment, agonist (TOX21_TRA_COA_Agonist_Followup_ratio, aeid 2230). The data set is classed as biochemical. For orientation: In TR-FRET formats the signal depends on donor and acceptor labels being close together.

Data set [8] deals with thyroid hormone receptor (TR). Briefly: Classification of TR actives across characterization assays (TR-Ag / RXR-Ag; TR model binary). Also on record: key to Categorization Code: FP, false positive. The method, boiled down: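 Pharmaceuticals excluded; actives called from GH3-TRE qHTS (agonist, antagonist, viability) on 8,305 chemicals. Confirmation of 84 selected chemicals used GH3-TRE-Ag, mammalian one-hybrid TRβ and RXRα UAS-bla HEK 293T specificity screens, parental HEK293T viability, and two TR:coactivator recruitment assays.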

For data set [9], the system named is GH3-TRE-Luc cell line. Briefly: GH3-TRE-Via cell viability, CellTiter-Fluor (TOX21_TR_LUC_GH3_Antagonist_viability, aeid 805). The settings on record: Rattus norvegicus, read-out: TR_LUC_GH3_Antagonist_viability AC50 (uM).
The subject of data set [10] is thyroid hormone receptor (endogenous TRα and TRβ). Put plainly: GH3-TRE-Ag primary qHTS, luciferase reporter, agonist mode (TOX21_TR_LUC_GH3_Agonist, aeid 803). In kind it is cell-based, rat.
In another data set the target is T3, human RXRα (Homo sapiens, UniProt P19793).
T3 construct: host or cells: GeneBLAzer UAS-bla HEK 293T
T3 sequence (P19793 227-458 limits assumed): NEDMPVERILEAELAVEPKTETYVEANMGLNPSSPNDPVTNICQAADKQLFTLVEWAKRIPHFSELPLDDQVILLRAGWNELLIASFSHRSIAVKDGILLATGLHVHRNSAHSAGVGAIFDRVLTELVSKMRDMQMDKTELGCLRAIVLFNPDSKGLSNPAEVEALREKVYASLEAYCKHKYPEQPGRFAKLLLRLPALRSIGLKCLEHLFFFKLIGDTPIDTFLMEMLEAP
Put plainly: RXRa-bla-Ag mammalian one-hybrid beta-lactamase assay (TOX21_TR_RXR_BLA_Agonist_Followup_ratio, aeid 2253). The data set is classed as cell-based.

Data set [11] relates to thyroid hormone receptor (endogenous TRα and TRβ). Briefly: cells. Set-up: species or system GH3-TRE-Luc (rat pituitary); GH3-TRE-Luc luciferase reporter, antagonist mode against 1 nM T3, loss of signal, qHTS. The settings on record: 24 h, antagonist mode, 1 nM T3, read-out: AC50 (uM) modified / 1000.
The nature of data set [12]: in vitro. Set-up: species or system GH3-TRE-Luc (rat pituitary); CellTiter-Fluor viability run in parallel with antagonist mode (1 nM T3), loss of viability. The settings on record: rat, gh3-tre-luc cells, 1 nM T3 present.
The nature of data set [13]: in vitro. The settings on record: rat.
The nature of data set [14]: Global cytotoxicity: eighteen Tox21 cell viability assays. The data set is classed as cell-based. The settings on record: median over 18 Tox21 cell viability assays (Judson et al. 2016, invitrodb_v2); read-out: Global cytotoxicity AC50 median.
Data set [15] is described as follows: in vitro. The settings on record: rat, gh3-tre-luc cells, AC50 (uM) modified / 1000.
In the next data set the test system is estrogen receptor. Set-up: method as in Judson et al. 2015. The settings on record: model values ≥0.1 define actives; ref Judson et al. 2015; cited from earlier work.
For data set [16], the target named is T1, human TRβ ligand-binding domain. Briefly: TRb-bla antagonist mammalian one-hybrid beta-lactamase assay (TOX21_TRB_BLA_Antagonist_Followup, aeid 2238-2240). In kind it is cell-based. The settings on record: for Emax: read-out: resp_max (maximum response value).
The subject of data set [17] is thyroid hormone receptor (endogenous TRα and TRβ). Put plainly: GH3-TRE-Antag-Followup confirmation (TOX21_TR_LUC_GH3_Antagonist_Followup, aeid 2227). The data set is classed as cell-based, rat. The settings on record: Table S3, aeid 2227.
The mark [18] stands for this setting: candidate chemicals in Tables 2 and 3 define actives.

Bounds are passed on as bounds.

T2 sequence (P10827 163-410 isoform P10827-2 limits assumed, other chains not shown): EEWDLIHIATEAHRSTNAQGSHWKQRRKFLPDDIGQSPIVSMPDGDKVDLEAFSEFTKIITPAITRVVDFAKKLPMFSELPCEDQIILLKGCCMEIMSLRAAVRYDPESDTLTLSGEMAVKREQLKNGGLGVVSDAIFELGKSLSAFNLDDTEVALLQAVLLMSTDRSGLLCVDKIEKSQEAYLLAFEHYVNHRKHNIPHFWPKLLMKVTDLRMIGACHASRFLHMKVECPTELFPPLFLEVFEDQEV

For the molecule `c1csc(-c2ccc(-c3cccs3)s2)c1` [alpha-Terthiophene], the AC50 in data set [1] (agonist, read-out: TRb-bla AC50) is above 92 µM; in data set [2], above 92 µM; in [5] it was 80.3 µM; in data set [6] (agonist, read-out: TRb-coa AC50), above 92 µM; in data set [7] (agonist, read-out: TRa-coa AC50), above 92 µM; in the data set on GH3-TRE-Luc cell line [9], above 92 µM. Moreover, the AC50 at human RXRα (read-out: tr-followup-rxr-bla-agonist-1 AC50) was 0.728 µM. This molecule also yielded a TRb-bla hitc in [1] (hit call from tcpl, agonist) of 0. For the same molecule, the Emax in [1] (read-out: EMax (% of Control) trb-bla-agonist-followup-1) was 25.8%; in [6] (read-out: EMax (% of Control) trb-coa-agonist-followup-1), -0.0945%; in [7] (read-out: EMax (% of Control) tra-coa-agonist-followup-1) it was -0.547%; on human RXRα (read-out: EMax (% of Control) tr-followup-rxr-bla-agonist-1) it was 65.3%. For the same molecule, the “EMax (% of Control) gh3-tre-agonist-followup-1_agonist” value in data set [2] is recorded as 7.5 % of Control. Further, the GH3-TRE-Ag-Followup hitc in data set [2] (hit call from tcpl) amounted to 0. Also, the “GLOBAL CYTOTOXICITY cytotox.median” value in [3] is given as above 92. The “GLOBAL CYTOTOXICITY cytotox.number_Active” value in data set [3] came to 0. Besides, the TR_LUC_GH3_Antagonist_viability hitc with GH3-TRE-Luc cell line [4] is on record as 0. In data set [6] (hit call from tcpl, agonist), this molecule had a TRb-coa hitc of 0. In data set [7] (hit call from tcpl, agonist), this molecule gave a TRa-coa hitc of 0. Also, in data set [8] (TR agonist characterization), the “Categorization Code” value is given as “FP”. In addition, the “EMax (% of Control) gh3-tre-agonist” value in data set [10] is recorded as 20.8 % of Control. Moreover, the “GH3-TRE-Ag AC50 hitc” value in data set [10] (hit call from tcpl) was 1. Also, the tr-followup-rxr-bla-agonist-1 hitc on human RXRα (hit call from tcpl) came to 1.
As to `C1=CCC=C1` [1,3-Cyclopentadiene], the AC50 in data set [11] (Tox21_110001=Tox21_302134) and in data set [5] was above 90 µM in each case. In the data set “in vitro [12]” (AC50 (uM) modified / 1000, Tox21_110001=Tox21_302134, viability), the CC50 (as a rule, the concentration at which the toxic effect on the cells reaches its halfway point) at 24 h is above 90 µM.
For `[CH3][Sn]([CH3])([Cl])[Cl]` [Dimethyltin dichloride], in “in vitro [12]” (AC50 (uM) modified / 1000, Tox21_110001=Tox21_201249, viability), it took 79.3 µM to reach half-maximal cytotoxicity (CC50 at 24 h).
As for `ClCc1ccccc1` [Benzyl chloride], the AC50 in data set [11] (Tox21_110001=Tox21_200266) and in data set [5] was above 90 µM throughout. The molecule further showed a CC50 at 24 h in the data set “in vitro [12]” (AC50 (uM) modified / 1000, Tox21_110001=Tox21_200266, viability) above 90 µM.
As for `CCOP(=S)(OCC)SCSc1cc(Cl)ccc1Cl` [Phenkapton], the AC50 in data set [11] (Tox21_110001=Tox21_301741) and in data set [5] was above 90 µM each time. In the data set “in vitro [12]” (AC50 (uM) modified / 1000, Tox21_110001=Tox21_301741, viability), the CC50 at 24 h was above 90 µM.
Regarding `N[C@@H](Cc1ccc(Oc2cc(I)c(O)c(I)c2)c(I)c1)C(=O)O` [3,3ʹ,5ʹ-Triiodo-L-thyronine], the AC50 in “in vitro [13]” was above 92 µM; in [2] (confirmation, agonist mode) it was 0.537 µM; in [14], above 92 µM; in data set [5], 0.218 µM. Further, in “in vitro [15]”, the CC50 at 24 h was above 50 µM. The Classification entry in data set [8] (TR-Ag = TR agonist, RXR-Ag = RXR agonist) is on record as “TR-Ag”.
With `CCOP(=S)(Oc1ccc([N+](=O)[O-])cc1)c1ccccc1` (stereo not shown) [EPN], the AC50 in [11] (Tox21_110001=Tox21_300424) and in [5] was above 90 µM in each case. The CC50 at 24 h in “in vitro [12]” (AC50 (uM) modified / 1000, Tox21_110001=Tox21_300424, viability) is above 90 µM.
In the case of `C=C1CCC2CC1C2(C)C` (single isomer, unassigned; (-)) [(-)-beta-Pinene], in the data set with estrogen receptor, the ER_Model_AUC_Agonist is 0 and the ER_Model_AUC_Antagonist is recorded as 0. In data set [8] (setting [18]), this molecule registered a TR_Model_Binary_Agonist of 0 and a TR_Model_Binary_Antagonist of 0.
On to `CCOP(=O)(CN(CCO)CCO)OCC` [Diethyl((diethanolamino)methyl)phosphonate], for which the AC50 in data set [11] (Tox21_110001=Tox21_301894) and in data set [5] was above 90 µM each time. In addition, in “in vitro [12]” (AC50 (uM) modified / 1000, Tox21_110001=Tox21_301894, viability), the CC50 at 24 h is above 90 µM.
As for `CCS(=O)(=O)CCSP(=O)(OC)OC` [Demeton-S-methylsulphon], the AC50 in data set [11] (Tox21_110001=Tox21_301575) and in [5] was above 90 µM each time. Also, the CC50 at 24 h in “in vitro [12]” (AC50 (uM) modified / 1000, Tox21_110001=Tox21_301575, viability) was above 90 µM.
With `CCOP(=S)(OCC)SCCl` [Chlormephos], the AC50 in [11] (Tox21_110001=Tox21_300825) and in data set [5] was above 90 µM throughout. The molecule further came in with a CC50 at 24 h in the data set “in vitro [12]” (AC50 (uM) modified / 1000, Tox21_110001=Tox21_300825, viability) above 90 µM.
Take `C[C@]12CC[C@@H]3c4ccc(OC(=O)N(CCCl)CCCl)cc4CC[C@H]3[C@@H]1CC[C@@H]2OP(=O)(O)O` [Estramustine phosphate sodium]: the AC50 in data set [11] (Tox21_110001=Tox21_113375) was above 50 µM.
In the data set “in vitro [12]” (AC50 (uM) modified / 1000, Tox21_110001=Tox21_202322, viability), `[CH3][Sn]([Cl])([Cl])[Cl]` [Trichloromethylstannane] displayed a CC50 at 24 h above 90 µM.
As for `CCOP(=O)(OCC)Oc1nc(Cl)c(Cl)cc1Cl` [Chlorpyrifos oxon], the CC50 at 24 h in “in vitro [12]” (AC50 (uM) modified / 1000, Tox21_110001=Tox21_301063, viability) stood at 60.1 µM. Further, in data set [5], the AC50 is above 90 µM.
Consider `O=C(O)c1cccnc1Nc1cccc(C(F)(F)F)c1` [Niflumic acid], for which, in [16] (Table S3, aeid 2238, ch1), the hitc turned out to be 0 and the Emax worked out at 36.4%. In addition, in data set [16] (Table S3, aeid 2239, ch2), the hitc turned out to be 0 and the Emax amounted to 24.1%. Further, in [16] (Table S3, aeid 2240, ratio), the hitc is 0 and the Emax turned out to be 46.2%. Moreover, in data set [17], the “flag (text output for the level 6 method)” value is “Borderline inactive”, the hitc is given as 0, the “modl_tp (top asymptote for the winning model)” value is recorded as 11.5978 percent_activity and the “resp_max (maximum response value)” value came to 41.1677 percent_activity. Also, the 50% cytotoxic concentration (CC50) at 24 h in “in vitro [15]” was above 50 µM.
